# Experimental data reported in DBAASP.
# Columns and labels:
# Test in all cases: ≥ marks a high value that may be exact or a test limit, other limits are often not marked, values filed in µg/mL are converted to µM
# [1] = tested on: Escherichia coli ATCC 25922
# [2] = tested on: Escherichia coli UB1005
# [3] = tested on: Escherichia coli K99
# [4] = tested on: Pseudomonas aeruginosa ATCC 27853
# [5] = tested on: Candida albicans CGMCC 2.2086
# [6] = tested on: Escherichia coli K88
# [7] = tested on: Staphylococcus aureus ATCC 43300
# [8] = tested on: Candida parapsilosis CGMCC 2.3989
# [9] = tested on: Salmonella enterica subsp. enterica serovar Typhimurium C77-31
# [10] = tested on: Escherichia coli 078
# [11] = tested on: Candida tropicalis CGMCC 2.1975
# [12] = tested on: Staphylococcus aureus ATCC 25923
# [13] = tested on: Salmonella enterica subsp. enterica serovar Typhimurium ATCC 14028
# [14] = tested on: Staphylococcus epidermidis ATCC 12228
# [15] = tested on: Staphylococcus aureus ATCC 29213
# [16] = tested on: Staphylococcus aureus ATCC 12600
# [17] = tested on: Streptococcus mutans ATCC 25175
# [18] = tested on: Escherichia coli ATCC 15597
# [19] = tested on: Bacillus subtilis ATCC 6633
# [20] = tested on: Micrococcus luteus ATCC 49732
# [21] = tested on: Klebsiella pneumoniae NCTC 5055
# [22] = tested on: Salmonella typhimurium DA6192
# [23] = tested on: Staphylococcus aureus ATCC 6538
# [24] = tested on: Candida albicans ATCC 10231
# [25] = tested on: Escherichia coli ATCC 2592
# [26] = tested on: Pseudomonas aeruginosa ATCC 10145
# [27] = tested on: Staphylococcus aureus ATCC 33591
# [28] = tested on: Cryptococcus neoformans ATCC 32045
# [29] = tested on: Escherichia coli JW0013
# [30] = tested on: Escherichia coli MC1061
# [31] = tested on: Salmonella typhimurium SL1344
# [32] = tested on: Escherichia coli J2210
# [33] = tested on: Escherichia coli JJ2487
# [34] = tested on: Salmonella enterica subsp. enterica serovar Enteritidis MH91989
# [35] = tested on: Escherichia coli O157:H7
smiles,measurement,setting,value
CC[C@H](C)[C@H](NC(=O)[C@H](CCCCN)NC(=O)[C@H](C)NC(=O)[C@H](C)N)C(=O)N[C@H](C(=O)N[C@@H](CC(C)C)C(=O)N[C@@H](CC(N)=O)C(=O)N1CCC[C@H]1C(=O)N[C@@H](CCCCN)C(=O)N[C@@H](Cc1ccccc1)C(=O)N[C@@H](CCCN=C(N)N)C(N)=O)[C@@H](C)CC [AAKIILNPKFR],MIC,[1],> 128 µM
same,MIC,[2],≥ 128 µM
same,MIC,[3],≥ 128 µM
same,MIC,[4],> 128 µM
same,MIC,[5],≥ 128 µM
same,MIC,[6],≥ 128 µM
same,MIC,[7],> 128 µM
same,MIC,[8],≥ 128 µM
same,MIC,[9],≥ 128 µM
same,MIC,[10],≥ 128 µM
same,MIC,[11],≥ 128 µM
same,MIC,[12],> 128 µM
same,MIC,[13],> 128 µM
same,MIC,[14],> 128 µM
same,MIC,[15],> 128 µM
CC[C@H](C)[C@H](NC(=O)[C@H](C)NC(=O)CNC(=O)[C@H](Cc1ccccc1)NC(=O)[C@H](CC(C)C)NC(=O)CN)C(=O)N[C@@H](C)C(=O)NCC(=O)N[C@@H](Cc1ccccc1)C(=O)N[C@H](C(=O)N[C@@H](CCCCN)C(=O)N[C@@H](CC(N)=O)C(=O)NCC(=O)N[C@@H](Cc1c[nH]c2ccccc12)C(=O)N[C@@H](CCCCN)C(=O)NCC(=O)N[C@@H](CCSC)C(=O)N[C@H](C(=O)N[C@@H](CCCCN)C(=O)NCC(N)=O)[C@@H](C)CC)[C@@H](C)CC [GLFGAIAGFIKNGWKGMIKG],MIC,[1],3.8 µM
same,MIC,[4],7.6 µM
same,MIC,[16],3.8 µM
same,MIC,[17],1.9 µM
CC[C@H](C)[C@H](N)C(=O)N[C@@H](CCC(N)=O)C(=O)N[C@@H](CCCCN)C(=O)N[C@H](C(=O)N[C@H](C(=O)N[C@@H](CCC(N)=O)C(=O)N[C@@H](CCCCN)C(=O)N[C@@H](CC(C)C)C(=O)N[C@@H](CC(C)C)C(=O)N[C@@H](CC(N)=O)C(=O)N[C@@H](CCCN=C(N)N)C(=O)N[C@@H](CC(C)C)C(=O)N[C@@H](CCC(N)=O)C(=O)N[C@@H](CCCCN)C(=O)N[C@H](C(=O)N[C@@H](CC(C)C)C(=O)N[C@@H](CCC(N)=O)C(=O)N[C@@H](CCCCN)C(=O)O)[C@@H](C)CC)[C@@H](C)CC)C(C)C [IQKVIQKLLNRLQKILQK],MIC,[18],3.1 µM
same,MIC,[19],4.2 µM
same,MIC,[20],1.05 µM
same,MIC,[4],3.1 µM
same,MIC,[21],12.5 µM
same,MIC,[22],20.8 µM
same,MIC,[23],> 50 µM
CC[C@H](C)[C@H](N)C(=O)N[C@H](C(=O)N[C@@H](CCCCN)C(=O)N[C@H](C(=O)N[C@H](C(=O)N[C@H](C(=O)N[C@@H](CCCCN)C(=O)N[C@@H](CC(C)C)C(=O)N[C@@H](CC(C)C)C(=O)N[C@@H](CC(N)=O)C(=O)N[C@@H](CCCN=C(N)N)C(=O)N[C@@H](CC(C)C)C(=O)N[C@H](C(=O)N[C@@H](CCCCN)C(=O)N[C@H](C(=O)N[C@@H](CC(C)C)C(=O)N[C@@H](CO)C(=O)N[C@@H](CCCCN)C(=O)O)[C@@H](C)CC)[C@@H](C)O)[C@@H](C)O)[C@@H](C)CC)C(C)C)[C@@H](C)O [ITKVITKLLNRLTKILSK],MIC,[18],3.1 µM
same,MIC,[19],15 µM
same,MIC,[20],1.5 µM
same,MIC,[4],25 µM
same,MIC,[21],≥ 50 µM
same,MIC,[22],≥ 40 µM
same,MIC,[23],15 µM
NCCCC[C@H](NC(=O)[C@H](Cc1ccccc1)NC(=O)[C@H](CCCCN)NC(=O)[C@H](CCCCN)NC(=O)[C@H](Cc1ccccc1)NC(=O)[C@H](CCCCN)NC(=O)[C@H](CCCCN)NC(=O)[C@H](Cc1ccccc1)NC(=O)[C@H](CCCCN)NC(=O)[C@H](CCCCN)NC(=O)[C@H](Cc1ccccc1)NC(=O)[C@H](CCCCN)NC(=O)[C@H](CCCCN)NC(=O)[C@H](Cc1ccccc1)NC(=O)[C@H](CCCCN)NC(=O)[C@H](CCCCN)NC(=O)[C@H](Cc1ccccc1)NC(=O)[C@H](CCCCN)NC(=O)[C@H](CCCCN)NC(=O)[C@H](Cc1ccccc1)NC(=O)[C@@H](N)CCCCN)C(=O)O [KFKKFKKFKKFKKFKKFKKFK],MIC,[24],124 µM
same,MIC,[25],15.4 µM
same,MIC,[26],≥ 44 µM
same,MIC,[27],≥ 176 µM
same,MIC,[28],17.5 µM
CC(C)C[C@H](NC(=O)[C@H](CCCN=C(N)N)NC(=O)[C@H](CC(C)C)NC(=O)[C@H](CCCN=C(N)N)NC(=O)[C@H](CC(C)C)NC(=O)[C@H](CCCN=C(N)N)NC(=O)[C@H](CC(C)C)NC(=O)[C@H](CCCN=C(N)N)NC(=O)[C@H](CC(C)C)NC(=O)[C@H](CCCN=C(N)N)NC(=O)[C@H](CC(C)C)NC(=O)[C@H](CCCN=C(N)N)NC(=O)[C@@H](N)CC(C)C)C(=O)N[C@@H](CCCN=C(N)N)C(=O)O [LRLRLRLRLRLRLR],MIC,[24],186 µM
same,MIC,[25],23 µM
same,MIC,[26],≥ 65.7 µM
same,MIC,[27],≥ 186 µM
same,MIC,[28],2.97 µM
CC[C@H](C)[C@H](NC(=O)[C@H](CCCN=C(N)N)NC(=O)[C@H](CCCN=C(N)N)NC(=O)[C@@H]1CCCN1C(=O)[C@@H]1CCCN1C(=O)[C@H](CCCN=C(N)N)NC(=O)[C@@H]1CCCN1C(=O)[C@H](CCCN=C(N)N)NC(=O)[C@@H]1CCCN1C(=O)[C@H](CC(C)C)NC(=O)[C@H](Cc1ccc(O)cc1)NC(=O)[C@@H]1CCCN1C(=O)[C@H](CCCN=C(N)N)NC(=O)[C@H](CCCCN)NC(=O)[C@H](CC(=O)O)NC(=O)[C@@H](N)C(C)C)C(=O)N[C@@H](Cc1ccc(O)cc1)C(=O)N[C@@H](CC(N)=O)C(=O)N[C@@H](CCCN=C(N)N)C(N)=O [VDKRPYLPRPRPPRRIYNR],MIC,[29],0.339 µM
same,MIC,[30],0.122 µM
same,MIC,[31],0.245 µM
same,MIC,[32],0.245 µM
same,MIC,[33],0.159 µM
same,MIC,[34],0.245 µM
same,MIC,[35],0.98 µM
CC[C@H](C)[C@H](NC(=O)[C@H](CCCN=C(N)N)NC(=O)[C@H](CCCN=C(N)N)NC(=O)[C@@H]1CCCN1C(=O)[C@@H]1CCCN1C(=O)[C@H](CCCN=C(N)N)NC(=O)[C@@H]1CCCN1C(=O)[C@H](CCCN=C(N)N)NC(=O)[C@@H]1CCCN1C(=O)[C@H](CCCN=C(N)N)NC(=O)[C@H](Cc1ccc(O)cc1)NC(=O)[C@@H]1CCCN1C(=O)[C@H](CCCN=C(N)N)NC(=O)[C@H](CCCCN)NC(=O)[C@H](CC(=O)O)NC(=O)[C@@H](N)C(C)C)C(=O)N[C@@H](Cc1ccc(O)cc1)C(=O)N[C@@H](CC(N)=O)C(=O)N[C@@H](CCCN=C(N)N)C(N)=O [VDKRPYRPRPRPPRRIYNR],MIC,[29],0.156 µM
same,MIC,[30],0.0602 µM
same,MIC,[31],0.156 µM
same,MIC,[32],0.12 µM
same,MIC,[33],0.169 µM
same,MIC,[34],0.169 µM
same,MIC,[35],0.666 µM
